# Data as given in the supplement of paper PMC8882468.
# ± gives the standard deviation of the averaged measurements.
# Experiments:
# Test in all cases: CTG-3D luminescence at 96 h relative to day-0 seeding control (ratio to day 0); higher = more growth / less cytotoxicity; PDxO 3D drug screen, 96 h, CTG-3D normalised to day-0 seeding control.
# HCI-016 = test system: HCI-016 (organoid from a triple-negative breast cancer xenograft)
# HCI-008 = test system: HCI-008 (organoid from a HER2-enriched breast cancer xenograft)
# HCI-015 = test system: HCI-015 (organoid from a triple-negative breast cancer xenograft)
smiles,measurement,setting,value
CCN(c1cc(C#CCN2CCOCC2)cc(C(=O)NCc2c(C)cc(C)[nH]c2=O)c1C)[C@H]1CC[C@H](N(C)CCOC)CC1,CTG-3D luminescence at 96 h,"HCI-016; 0.005 µM, days in culture: 153",2.22
same,CTG-3D luminescence at 96 h,"HCI-016; 0.005 µM, days in culture: 172",1.72
same,CTG-3D luminescence at 96 h,"HCI-016; 0.005 µM, days in culture: 190",1.75
same,CTG-3D luminescence at 96 h,"HCI-016; 0.005 µM, days in culture: 199",2.22
same,CTG-3D luminescence at 96 h,"HCI-016; 0.1 µM, days in culture: 153",1.64
same,CTG-3D luminescence at 96 h,"HCI-016; 0.1 µM, days in culture: 172",1.56
same,CTG-3D luminescence at 96 h,"HCI-016; 0.1 µM, days in culture: 190",1.5
same,CTG-3D luminescence at 96 h,"HCI-016; 0.1 µM, days in culture: 199",1.86
same,CTG-3D luminescence at 96 h,"HCI-016; 1 µM, days in culture: 153",2.25
same,CTG-3D luminescence at 96 h,"HCI-016; 1 µM, days in culture: 172",2.1
same,CTG-3D luminescence at 96 h,"HCI-016; 1 µM, days in culture: 190",1.73
same,CTG-3D luminescence at 96 h,"HCI-016; 1 µM, days in culture: 199",2.01
same,CTG-3D luminescence at 96 h,"HCI-016; 10 µM, days in culture: 153",2.06
same,CTG-3D luminescence at 96 h,"HCI-016; 10 µM, days in culture: 172",1.64
same,CTG-3D luminescence at 96 h,"HCI-016; 10 µM, days in culture: 190",1.62
same,CTG-3D luminescence at 96 h,"HCI-016; 10 µM, days in culture: 199",1.95
same,CTG-3D luminescence at 96 h,"HCI-016; 100 µM, days in culture: 153",1.5
same,CTG-3D luminescence at 96 h,"HCI-016; 100 µM, days in culture: 172",1.52
same,CTG-3D luminescence at 96 h,"HCI-016; 100 µM, days in culture: 190",1.56
same,CTG-3D luminescence at 96 h,"HCI-016; 100 µM, days in culture: 199",2.02
same,CTG-3D luminescence at 96 h,"HCI-016; 625 fM, days in culture: 153",3.1
same,CTG-3D luminescence at 96 h,"HCI-016; 625 fM, days in culture: 172",1.33
same,CTG-3D luminescence at 96 h,"HCI-016; 625 fM, days in culture: 190",1.36
same,CTG-3D luminescence at 96 h,"HCI-016; 625 fM, days in culture: 199",2.09
same,CTG-3D luminescence at 96 h,"HCI-008; 12.5 pM, days in culture: 228",1.54 ± 0.067
same,CTG-3D luminescence at 96 h,"HCI-008; 12.5 pM, days in culture: 244",1.38
same,CTG-3D luminescence at 96 h,"HCI-008; 0.00025 µM, days in culture: 228",1.571 ± 0.015
same,CTG-3D luminescence at 96 h,"HCI-008; 0.00025 µM, days in culture: 244",2.13
same,CTG-3D luminescence at 96 h,"HCI-008; 0.005 µM, days in culture: 228",1.283 ± 0.0089
same,CTG-3D luminescence at 96 h,"HCI-008; 0.005 µM, days in culture: 244",1.81
same,CTG-3D luminescence at 96 h,"HCI-008; 0.1 µM, days in culture: 228",1.61 ± 0.1
same,CTG-3D luminescence at 96 h,"HCI-008; 0.1 µM, days in culture: 244",2.04
same,CTG-3D luminescence at 96 h,"HCI-008; 1 µM, days in culture: 228",1.59 ± 0.14
same,CTG-3D luminescence at 96 h,"HCI-008; 1 µM, days in culture: 244",1.7
same,CTG-3D luminescence at 96 h,"HCI-008; 10 µM, days in culture: 228",1.63 ± 0.48
same,CTG-3D luminescence at 96 h,"HCI-008; 10 µM, days in culture: 244",2.31
same,CTG-3D luminescence at 96 h,"HCI-008; 100 µM, days in culture: 228",1.43 ± 0.024
same,CTG-3D luminescence at 96 h,"HCI-008; 100 µM, days in culture: 244",2.04
same,CTG-3D luminescence at 96 h,"HCI-008; 625 fM, days in culture: 228",1.77 ± 0.43
same,CTG-3D luminescence at 96 h,"HCI-008; 625 fM, days in culture: 244",2.47
same,CTG-3D luminescence at 96 h,"HCI-015; 12.5 pM, days in culture: 172",2.25
same,CTG-3D luminescence at 96 h,"HCI-015; 12.5 pM, days in culture: 191",2.6
same,CTG-3D luminescence at 96 h,"HCI-015; 12.5 pM, days in culture: 218",1.78
same,CTG-3D luminescence at 96 h,"HCI-015; 0.00025 µM, days in culture: 172",1.77
same,CTG-3D luminescence at 96 h,"HCI-015; 0.00025 µM, days in culture: 191",1.59
same,CTG-3D luminescence at 96 h,"HCI-015; 0.00025 µM, days in culture: 218",1.4
same,CTG-3D luminescence at 96 h,"HCI-015; 0.005 µM, days in culture: 172",2.86
same,CTG-3D luminescence at 96 h,"HCI-015; 0.005 µM, days in culture: 191",1.92
same,CTG-3D luminescence at 96 h,"HCI-015; 0.005 µM, days in culture: 218",2
same,CTG-3D luminescence at 96 h,"HCI-015; 0.1 µM, days in culture: 172",1.78
same,CTG-3D luminescence at 96 h,"HCI-015; 0.1 µM, days in culture: 191",1.44
same,CTG-3D luminescence at 96 h,"HCI-015; 0.1 µM, days in culture: 218",1.49
same,CTG-3D luminescence at 96 h,"HCI-015; 1 µM, days in culture: 172",2.2
same,CTG-3D luminescence at 96 h,"HCI-015; 1 µM, days in culture: 191",2.09
same,CTG-3D luminescence at 96 h,"HCI-015; 1 µM, days in culture: 218",1.67
same,CTG-3D luminescence at 96 h,"HCI-015; 10 µM, days in culture: 172",1.94
same,CTG-3D luminescence at 96 h,"HCI-015; 10 µM, days in culture: 191",1.44
same,CTG-3D luminescence at 96 h,"HCI-015; 10 µM, days in culture: 218",2.02
same,CTG-3D luminescence at 96 h,"HCI-015; 100 µM, days in culture: 172",1.91
same,CTG-3D luminescence at 96 h,"HCI-015; 100 µM, days in culture: 191",1.13
same,CTG-3D luminescence at 96 h,"HCI-015; 100 µM, days in culture: 218",0.907
same,CTG-3D luminescence at 96 h,"HCI-015; 625 fM, days in culture: 172",2.23
same,CTG-3D luminescence at 96 h,"HCI-015; 625 fM, days in culture: 191",1.91
same,CTG-3D luminescence at 96 h,"HCI-015; 625 fM, days in culture: 218",2.07
